Assay results taken from patent publication US20240034729A9, “HETEROCYCLIC COMPOUND, INTERMEDIATE, PREPARATION METHOD THEREFOR AND APPLICATION THEREOF” (WUHAN LL SCIENCE AND TECHNOLOGY DEVELOPMENT CO., LTD., priority 2018, published 2024).
Like-named read-outs stand apart in the source and are kept apart here.

Tests used:
[1] = system: Male Dunkin Hartley guinea pigs; test: Citric acid only cough model; assay type: in vivo, guinea pig; parameters: Mean cough latency: unit not given beside the values; conditions: for Number of coughs and cough latency (in words): compared with the blank vehicle or the condition before administration; for inhibition in vivo at 30 mg/kg: Cavia porcellus; for Mean number of coughs: 17.5% citric acid
Protocol: Male Dunkin Hartley guinea pigs (300-350 g) were placed in an animal atomization box, and then the door of the atomization box was closed while the ultrasonic atomizer (Guangdong Yuehua) was turned on. 17.5% citric acid gas was introduced into the atomization box at a maximum atomization rate (about 2 mL/min) for 20 s, and coughs of the animals within 10 min were continuously observed from the time of the start of atomization. During the 10-min observation, coughs of the animals were counted manually, and the number of coughs were judged according to cough postures of the guinea pigs, such as abdominal twitching, mouth opening, and head inclining downward abruptly. The number of coughs during the first 5 min and that during 10 min were recorded, and the cough latency of the guinea pigs, namely the time from the initiation of citric acid induction to the appearance of the first cough, was also recorded.

Male SD rats = test: Two-bottle dysgeusia test (quinine water vs normal water); assay type: in vivo, rat; conditions: for Ratio of quinine/water intake (in words): compared with the blank vehicle; for Quinine/tap water* 100%: rats, single intraperitoneal injection
Protocol: All drinking water bottles were removed out 20 h before the start of the formal experiment, and all the animals were deprived of water until the start of the experiment. In the experiment, all the animals were randomly grouped and then subjected to a single intraperitoneal injection of a test compound or a vehicle before water was resupplied. The administration time was determined according to the Tmax of the test compound. Then the animals were placed in separate cages, and two bottles of drinking water (one bottle of normal drinking water and one bottle of 0.3 mM quinine water) were provided.

[2] = biological target: hP2X2/3 (heterodimeric receptors formed by human purinergic P2X receptors subtype 2 and subtype 3) (Homo sapiens (Human), UniProt P56373+Q9UBL9); test: FLIPR calcium assay, hP2X2/3 expressed in HEK293 cells (P2X2/3 receptor selectivity); assay type: cell-based; conditions: for IC50: HEK293 cells expressing hP2X2/3, agonist BZ-ATP 5 μM, unit inferred
[3] = In vitro cytotoxicity assay, CCK-8 method; assay type: cell-based; conditions: human, HepG2 cells
Protocol: In vitro cytotoxicity assay for the compounds disclosed herein was performed in HepG2 cells using the CCK-8 method. HepG2 cells (Beina Bio) in the logarithmic growth phase were collected, the concentration of cell suspension was adjusted, and then the cells were plated on a 96-well cell culture plate at 50,000 cells/well. The cells were then incubated overnight in a cell incubator of 5% […] at 37° C., and after 80-90% cell confluence was achieved, test compounds or vehicle (DMSO) at various concentration gradients were added after medium change. The plate was incubated in a cell incubator of 5% […] at 37° C. for 48 h. After the treatment, the medium in the plate was discarded. The plate was washed twice with PBS, added with CCK-8 working solution (Beyotime) at 100 μL per well, and then incubated at 37° C. for 1.5 h away from light. Absorbance at OD450nm was measured for each well on a microplate reader, and CC50 value of each compound was analyzed and calculated.

[4] = biological target: hP2X3 (human purinergic P2X receptor subtype 3) (Homo sapiens (Human), UniProt P56373); test: FLIPR calcium assay, hP2X3 expressed in HEK293 cells; assay type: cell-based; conditions: read-out: P2X3 IC50
[5] = In vitro metabolic stability, rat liver microsome; assay type: in vitro ADME; conditions: liver microsomes, 1 mg/mL liver microsome protein, 37° C., NA = essentially not metabolized, read-out: T1/2 in rat liver microsome
Protocol: (§1) The in vitro metabolic stability of the compounds disclosed herein was determined through incubation of liver microsomes of various species. […] At each time point, 100 μL of the reaction mixture was added into a centrifuge tube containing 400 μL of internal standard working solution (containing a 200 ng/mL solution of dexamethasone, diclofenac, tolbutamide and labetalol in acetonitrile) precooled at 0° C. so as to terminate the reaction, and the mixture was then centrifuged at 10,000 g for 10 min at 4° C. The supernatant was collected for LC-MS assay so as to obtain the values of in vitro metabolic half-life of the test compounds in liver microsomes of various species.

[6] = In vitro metabolic stability, guinea pig liver microsome; assay type: in vitro ADME; conditions: liver microsomes, 1 mg/mL liver microsome protein, 37° C., NA = essentially not metabolized, read-out: T1/2 in guinea pig liver microsome
Protocol: The in vitro metabolic stability of the compounds disclosed herein was determined through incubation of liver microsomes of various species. A proper amount of test compound was added into a liver microsome reaction system (1 mg/mL liver microsome protein, 25 U/mL glucose-6 phosphate dehydrogenase, 1 mM NADP, 6 mM D-glucose 6-phosphate and 5 mM MgCl2), and then the mixture was incubated in a water bath kettle at 37° C. to start the reaction. At each time point, 100 μL of the reaction mixture was added into a centrifuge tube containing 400 μL of internal standard working solution (containing a 200 ng/mL solution of dexamethasone, diclofenac, tolbutamide and labetalol in acetonitrile) precooled at 0° C. so as to terminate the reaction, and the mixture was then centrifuged at 10,000 g for 10 min at 4° C. The supernatant was collected for LC-MS assay so as to obtain the values of in vitro metabolic half-life of the test compounds in liver microsomes of various species.

[7] = In vitro metabolic stability, human liver microsome; assay type: in vitro ADME; conditions: liver microsomes, 1 mg/mL liver microsome protein, 37° C., NA = essentially not metabolized, read-out: T1/2 in human liver microsome
Protocol: as §1

[8] = 30 mg/kg, read-out: Cough inhibition rate Vs Baseline (%)
[9] = 30 mg/kg, read-out: Cough inhibition rate Vs Vehicle (%)
[10] = Table 8, 20 mg/kg, water intake within 15 min, 0.3 mM quinine
[11] = before administration (baseline of the group)

Chain of hP2X2/3 (heterodimeric receptors formed by human purinergic P2X receptors subtype 2 and subtype 3) (P56373 whole entry): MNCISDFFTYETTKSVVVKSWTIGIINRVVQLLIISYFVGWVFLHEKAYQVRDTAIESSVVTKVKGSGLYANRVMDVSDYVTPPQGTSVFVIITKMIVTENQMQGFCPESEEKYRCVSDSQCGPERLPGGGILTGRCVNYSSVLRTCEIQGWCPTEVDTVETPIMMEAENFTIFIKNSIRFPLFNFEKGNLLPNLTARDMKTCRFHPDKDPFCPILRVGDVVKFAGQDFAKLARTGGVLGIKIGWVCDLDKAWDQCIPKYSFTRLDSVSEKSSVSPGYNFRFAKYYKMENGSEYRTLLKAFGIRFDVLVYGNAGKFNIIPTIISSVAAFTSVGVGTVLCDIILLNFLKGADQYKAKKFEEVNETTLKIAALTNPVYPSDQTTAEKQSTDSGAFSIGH
Chain of hP2X2/3 (heterodimeric receptors formed by human purinergic P2X receptors subtype 2 and subtype 3) (Q9UBL9 whole entry): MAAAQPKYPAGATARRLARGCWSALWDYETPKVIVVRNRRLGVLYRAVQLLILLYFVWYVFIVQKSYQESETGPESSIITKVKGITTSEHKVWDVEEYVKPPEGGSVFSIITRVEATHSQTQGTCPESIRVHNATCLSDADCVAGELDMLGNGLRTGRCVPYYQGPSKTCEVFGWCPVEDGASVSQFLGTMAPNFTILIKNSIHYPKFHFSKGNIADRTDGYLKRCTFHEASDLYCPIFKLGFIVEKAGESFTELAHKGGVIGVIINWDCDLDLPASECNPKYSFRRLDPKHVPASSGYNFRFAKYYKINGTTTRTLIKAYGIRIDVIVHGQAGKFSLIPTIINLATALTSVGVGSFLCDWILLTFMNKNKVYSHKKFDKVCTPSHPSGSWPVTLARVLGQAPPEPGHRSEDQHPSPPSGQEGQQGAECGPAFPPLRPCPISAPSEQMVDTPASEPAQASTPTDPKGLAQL
Chain of hP2X3 (human purinergic P2X receptor subtype 3) (P56373 whole entry): as the sequence (P56373 whole entry) above

Row | Quinine/tap water* 100% (Male SD rats; Table 9, 10 mg/kg) [%] | Quinine/tap water* 100% (Male SD rats; Table 9, 20 mg/kg) [%] | SMILES | Number of coughs and cough latency (in words) ([1]; 30 mg/kg) | inhibition in vivo at 30 mg/kg [1, 8] [%] | inhibition in vivo at 30 mg/kg [1, 9] [%] | Ratio of quinine/water intake (in words) (Male SD rats; 20 mg/kg) | Quinine/tap water* 100% (Male SD rats; [10]) [%] | Folds of selectivity [2] | IC50 [2] [µM] | CC50 at 48 h [3] [µM] | IC50 [4] [µM] | half-life [5] [min] | half-life [6] [min] | half-life [7] [min] | Cough inhibition rate Vs Baseline (%) ([1]; 30 mg/kg) | Cough inhibition rate Vs Vehicle (%) ([1]; 30 mg/kg) | Mean cough latency ([1]; after administration, 30 mg/kg) | Mean number of coughs ([1]; after administration, 30 mg/kg) | Mean cough latency [1, 11] | Mean number of coughs [1, 11]
1 | – | – | CC(=O)N1CCO[C@@H](Cc2c(-c3c(F)cc(-c4nnc[nH]4)cc3F)nc3cc(C)ccn23)C1 [Compound 165] | can effectively reduce the number of coughs and prolong the cough latency | 54.5 | 53.6 | almost unaffected | 3.90 | A (key: A: folds of selectivity >1000; B: 200< folds of selectivity ≤1000; C: folds of selectivity ≤200) | > 60 | > 100 | < 0.01 | – | – | – | – | – | – | – | – | –
2 | – | – | CC(=O)N1CCO[C@@H](Cc2c(-c3c(F)cc(-n4ccnc4)cc3F)nc3cc(C)ccn23)C1 [Compound 162, (S)-1-(2-((2-(2,6-difluoro-4-(1H-imidazol-1-yl)phenyl)-7-methylimidazo[1,2-a]pyridin-3-yl)methyl)morpholino)ethan-1-one] | can effectively reduce the number of coughs and prolong the cough latency | 46.1 | 42.8 | almost unaffected | 6.34 | A (key: A: folds of selectivity >1000; B: 200< folds of selectivity ≤1000; C: folds of selectivity ≤200) | > 60 | > 100 | < 0.01 | – | – | – | – | – | – | – | – | –
3 | – | – | CCC(=O)c1ccn(-c2cc(F)c(-c3nc4cc(C)ccn4c3C[C@H]3CN(C(=O)OC)CCO3)c(F)c2)n1 [Compound 164, methyl (S)-2-((2-(2,6-difluoro-4-(3-propionyl-1H-pyrazol-1-yl)phenyl)-7-methylimidazo[1,2-a]pyridin-3-yl)methyl) morpholine-4-carboxylate] | – | 67.2 | 65.2 | almost unaffected | 6.69 | A (key: A: folds of selectivity >1000; B: 200< folds of selectivity ≤1000; C: folds of selectivity ≤200) | > 60 | > 100 | – | – | – | – | – | – | – | – | – | –
4 | – | – | CNC(=O)c1cc(F)c(-c2oc3cc(C)ccc3c2C[C@H]2CN(C(=O)OC)CCO2)c(F)c1 [Compound 53, methyl (S)-2-((2-(2,6-difluoro-4-(methylcarbamoyl)phenyl)-6-methylbenzofuran-3-yl)methyl)morpholine-4-carboxylate] | can effectively reduce the number of coughs and prolong the cough latency | 51.7 | 47.7 | almost unaffected | 7.65 | – | – | – | < 0.01 | – | – | – | – | – | – | – | – | –
5 | – | – | COC(=O)N1CCO[C@@H](Cc2c(-c3c(F)cc(-c4ccc[nH]4)cc3F)nc3cc(C)ccn23)C1 [Compound 4, methyl (S)-2-((2-(2,6-difluoro-4-(1H-pyrrol-2-yl)phenyl)-7-methylimidazo[1,2-a]pyridin-3-yl)methyl)morpholine-4-carboxylate] | – | – | – | – | – | A (key: A: folds of selectivity >1000; B: 200< folds of selectivity ≤1000; C: folds of selectivity ≤200) | 14.3 | 13.2 | < 0.01 | 4.91 | 4.38 | 61 | – | – | – | – | – | –
6 | 18.62 | 34.99 | COc1cc(C(C)C)c(Oc2cnc(N)nc2N)cc1S(N)(=O)=O [Positive compound 2, reference compound] | – | – | – | – | 59.41 | – | – | > 200 | – | 1090 | 892 | – | – | – | – | – | – | –
7 | – | – | CNC(=O)c1cc(F)c(-c2nc3cc(C)ccn3c2C[C@H]2CN(C(=O)OC)CCO2)c(F)c1 [Positive compound 1, methyl (S)-2-((2-(2,6-difluoro-4-(4-methylcarbamoyl)phenyl)-7-methylimidazo[1,2-a]pyridin-3-yl)methyl)morpholine-4-carboxylate, reference compound] | – | – | – | – | – | >5217 | – | 128 | – | 53.4 | 112 | 1450 | 47.0 | 42.6 | 226.75 | 9.88 | 80.13 | 18.63
8 | – | – | COC(=O)Nc1cc(F)c(-c2nc3cc(C)ccn3c2C[C@H]2CN(C(=O)OC)CCO2)c(F)c1 [Compound 3, methyl (S)-2-((2-(2,6-difluoro-4-(methoxycarbonylamino)phenyl)-7-methylimidazo[1,2-a]pyridin-3-yl)-methyl)morpholine-4-carboxylate] | – | – | – | – | – | A (key: A: folds of selectivity >1000; B: 200< folds of selectivity ≤1000; C: folds of selectivity ≤200) | > 60 | 59.3 | 0.01 to 0.05 | 28.7 | 50.5 | 260 | – | – | – | – | – | –
9 | – | – | COC(=O)N1CCO[C@@H](Cc2c(-c3c(F)cc(N)cc3F)nc3cc(Cl)ccn23)C1 [Compound 161, methyl (S)-2-((2-(4-amino-2,6-difluorophenyl)-7-chloroimidazo[1,2-a]pyridin-3-yl)methyl)morpholine-4-carboxylate] | can effectively reduce the number of coughs and prolong the cough latency | 66.2 | 63.5 | almost unaffected | 5.03 | A (key: A: folds of selectivity >1000; B: 200< folds of selectivity ≤1000; C: folds of selectivity ≤200) | > 60 | > 100 | 0.01 to 0.05 | – | – | – | – | – | – | – | – | –
10 | – | – | COC(=O)N1CCO[C@@H](Cc2c(-c3c(F)cc(-c4cc[nH]n4)cc3F)nc3cc(C)ccn23)C1 [Compound 15, methyl (S)-2-((2-(2,6-difluoro-4-(1H-pyrazol-3-yl)phenyl)-7-methylimidazo[1,2-a]pyridin-3-yl)methyl)morpholine-4-carboxylate] | – | – | – | – | – | B (key: A: folds of selectivity >1000; B: 200< folds of selectivity ≤1000; C: folds of selectivity ≤200) | 21.6 | 52.6 | < 0.01 | 25.4 | 16.5 | 191 | – | – | – | – | – | –
